Numbers after ± are expanded uncertainties.
How the values were obtained:
[1] = molar heat capacity at constant pressure; settings: 101.3 kPa, Liquid, Small sample (50 mg) DSC
[2] = molar heat capacity at constant pressure; xn = mol fraction of the nth substance listed; settings: 101.3 kPa, Liquid, Small sample (50 mg) DSC, x1 = 1

| Compound | molar heat capacity at constant pressure ([1]; 283.15 K) [J/K/mol] | molar heat capacity at constant pressure ([1]; 293.15 K) [J/K/mol] | molar heat capacity at constant pressure ([1]; 303.15 K) [J/K/mol] | molar heat capacity at constant pressure ([1]; 313.15 K) [J/K/mol] | molar heat capacity at constant pressure ([1]; 323.15 K) [J/K/mol] | molar heat capacity at constant pressure ([1]; 333.15 K) [J/K/mol] | molar heat capacity at constant pressure ([1]; 343.15 K) [J/K/mol] | molar heat capacity at constant pressure ([2]; 283.15 K) [J/K/mol] | molar heat capacity at constant pressure ([2]; 293.15 K) [J/K/mol] | molar heat capacity at constant pressure ([2]; 303.15 K) [J/K/mol] | molar heat capacity at constant pressure ([2]; 313.15 K) [J/K/mol] | molar heat capacity at constant pressure ([2]; 323.15 K) [J/K/mol] | molar heat capacity at constant pressure ([2]; 333.15 K) [J/K/mol] | molar heat capacity at constant pressure ([2]; 343.15 K) [J/K/mol] |
| --- | --- | --- | --- | --- | --- | --- | --- | --- | --- | --- | --- | --- | --- | --- |
| CCn1cc[n+](C)c1.O=C([O-])C(F)(F)F [1-ethyl-3-methylimidazolium trifluoroacetate] | 308 ± 25 | 313 ± 25 | 320 ± 26 | 324 ± 26 | 328 ± 27 | 332 ± 27 | 337 ± 27 |  |  |  |  |  |  |  |
| CCOS(=O)(=O)[O-].CCn1cc[n+](C)c1 [1-ethyl-3-methylimidazolium ethyl sulfate] | 365 ± 30 | 371 ± 30 | 380 ± 31 | 386 ± 31 | 392 ± 32 | 397 ± 32 | 403 ± 33 |  |  |  |  |  |  |  |
| O [water] + CCn1cc[n+](C)c1.O=C([O-])C(F)(F)F |  |  |  |  |  |  |  | 75 ± 6 | 75 ± 6 | 75 ± 6 | 75 ± 6 | 75 ± 6 | 75 ± 6 | 75 ± 6 |
| CCn1cc[n+](C)c1.O=S(=O)([O-])C(F)(F)F [1-ethyl-3-methylimidazolium trifluoromethanesulfonate] | 353 ± 29 | 358 ± 29 | 366 ± 30 | 371 ± 30 | 376 ± 31 | 380 ± 31 | 384 ± 31 |  |  |  |  |  |  |  |
| O [water] | 75 ± 6 | 75 ± 6 | 75 ± 6 | 75 ± 6 | 75 ± 6 | 75 ± 6 | 75 ± 6 |  |  |  |  |  |  |  |
| O [water] + CCn1cc[n+](C)c1.O=S(=O)([O-])C(F)(F)F |  |  |  |  |  |  |  | 75 ± 6 | 75 ± 6 | 75 ± 6 | 75 ± 6 | 75 ± 6 | 75 ± 6 | 75 ± 6 |
| O [water] + CCOS(=O)(=O)[O-].CCn1cc[n+](C)c1 |  |  |  |  |  |  |  | 75 ± 6 | 75 ± 6 | 75 ± 6 | 75 ± 6 | 75 ± 6 | 75 ± 6 | 75 ± 6 |

From the NIST ThermoML archive (doi:10.1021/je800248w)
